Measured values published in PMC4864240, “Biotype Characterization, Developmental Profiling, Insecticide Response and Binding Property of Bemisia tabaci Chemosensory Proteins: Role of CSP in Insect Defense” (PLoS ONE, 2016).
Read-outs that look alike come from different tables or passages of the source.

Experiments:
Test in all cases: biochemical
Assay type in all cases: binding
[1] = molecular target: T1, BtabCSP3 (Bemisia tabaci, UniProt A0A097GUB5)
T1 sequence (A0A097GUB5 21-138): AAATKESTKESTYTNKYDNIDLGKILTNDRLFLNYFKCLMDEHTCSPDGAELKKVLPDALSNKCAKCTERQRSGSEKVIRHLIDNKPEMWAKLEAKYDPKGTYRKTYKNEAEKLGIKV
Procedure: (§1) Protein-ligand binding affinity was determined for the three recombinant proteins. Emission fluorescence spectra were recorded on a Jasco FP-6500 Series fluorescence spectrofluorometer. […] Fluorescence was measured using an exciting wavelength of 337 nm. Emission spectrum was recorded between 350 and 500 nm.

[2] = molecular target: T2, BtabCSP1 (Bemisia tabaci, UniProt D6N3A3)
T2 sequence (D6N3A3 20-126): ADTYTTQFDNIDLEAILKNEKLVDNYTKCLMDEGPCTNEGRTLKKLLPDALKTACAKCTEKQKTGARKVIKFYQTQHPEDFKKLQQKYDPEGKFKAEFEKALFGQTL
Procedure: as §1

[3] = molecular target: T3, BtabCSP2 (Bemisia tabaci, UniProt H6UKS9)
T3 sequence (H6UKS9 22-131): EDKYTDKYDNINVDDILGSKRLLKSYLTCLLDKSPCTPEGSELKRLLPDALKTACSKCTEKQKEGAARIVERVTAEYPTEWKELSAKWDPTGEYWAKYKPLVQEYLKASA
Procedure: as §1

[4] = u.d. = binding constant not calculated, IC50>100 μM, read-out: BtabCSP3 Ki (u.d.)
[5] = u.d. = binding constant not calculated, IC50>100 μM, read-out: BtabCSP1 Ki (u.d.)
[6] = u.d. = binding constant not calculated, IC50>100 μM, read-out: BtabCSP2 Ki (u.d.)
[7] = competitive binding vs 1-NPN, three replicates ± SD, read-out: BtabCSP1 Ki
[8] = displacement of 1-NPN, read-out: IC50, BtabCSP1
[9] = BtabCSP1 Ki (u.d.), u.d. = binding constant not calculated, IC50>100 μM

Compound | Ki [1, 4] [µM] | Ki [2, 5] [µM] | Ki [3, 6] [µM] | also measured
CCCCCCCCCCCCCCC [n-Pentadecane] | > 100 | > 100 | > 100 | 
CCCCCCCCCCCCCC(C)=O [2-Pentadecanone] | > 100 | > 100 | > 100 | 
O=C(O)/C=C/c1ccccc1 [Cinnamic acid] | > 100 |  | > 100 | Ki [2, 7]: 75.5 ± 2.29 µM; IC50 [2, 8]: 14.6 to 95.1 µM
CCCC(O)CC (stereo not drawn) [3-Hexanol] | > 100 | > 100 | > 100 | 
CCCCCCCCCCCC(=O)O [Lauric acid] | > 100 |  | > 100 | Ki [2, 7]: 35.2 ± 1.42 µM
CCCCCCC=O [Heptanal] | > 100 | > 100 | > 100 | 
C=CC(C)(O)CCC=C(C)C (stereo not drawn) [Linalool] | > 100 | > 100 | > 100 | IC50 [2, 8]: 14.6 to 95.1 µM
O=Cc1ccccc1 [Benzaldehyde] |  |  |  | Ki [1]: > 100 µM; Ki [2, 9]: > 100 µM; Ki [3]: > 100 µM
CCC/C=C/COC(=O)CCC [(E)-2-Hexenyl butyrate] | > 100 | > 100 | > 100 | 
CCCCC/C=C\C/C=C\CCCCCCCC(=O)O [Linoleic acid] |  |  | > 100 | Ki ([1]; competitive binding vs 1-NPN, three replicates ± SD, read-out: BtabCSP3 Ki): 43.5 ± 2.86 µM; IC50 ([1]; displacement of 1-NPN): 48.5 ± 3.42 µM; Ki [2, 7]: 5.78 ± 0.39 µM; IC50 [2, 8]: 6.7 ± 0.52 µM; IC50 ([3]; displacement of 1-NPN): > 100 µM
C=C1CCC2CC1C2(C)C (stereo not drawn) [β-Pinene] | > 100 | > 100 | > 100 | 
CCCCCCOC(C)=O [Hexyl acetate] | > 100 | > 100 | > 100 | 
CC1=CCC2C(C1)C2(C)C (stereo not drawn) [3-Carene] | > 100 | > 100 | > 100 | 
CCCCCOC(C)=O [Amyl acetate] | > 100 | > 100 | > 100 | 
CC(=O)c1ccc(C)cc1C [2, 4′-Dimethylacetophenone] |  |  |  | Ki [1]: > 100 µM; Ki [2, 9]: > 100 µM; Ki [3]: > 100 µM
CCCCCCO [1-Hexanol] | > 100 |  | > 100 | Ki [2, 7]: 46.8 ± 1.37 µM; IC50 [2, 8]: 14.6 to 95.1 µM

Compound | Ki [1, 4] [µM] | Ki [2, 5] [µM] | Ki [3, 6] [µM] | also measured
CC(C)=CCC/C(C)=C/CO [Geraniol] |  |  |  | Ki [1]: > 100 µM; IC50 [2]: 14.6 to 95.1 µM; Ki ([2]; BtabCSP1 Ki, competitive binding vs 1-NPN, three replicates ± SD): 39.6 ± 3.01 µM; Ki [3]: > 100 µM
COC(=O)c1ccccc1O [Methyl salicylate] | > 100 |  | > 100 | Ki [2, 7]: 60 ± 2.74 µM; IC50 [2, 8]: 14.6 to 95.1 µM
S(-)-Limonene | > 100 |  | > 100 | Ki [2, 7]: 82.2 ± 3.47 µM
CC1=CC[C@@H](C(C)(C)O)CC1 [α-Terpineol] | > 100 | > 100 | > 100 | IC50 [2, 8]: 14.6 to 95.1 µM
c1ccc(Nc2cccc3ccccc23)cc1 [1-NPN] |  |  |  | Kd ([1]; direct titration, Scatchard plot, read-out: binding constant of 1-NPN to CSP3): 15.3 µM; Kd ([2]; direct titration, Scatchard plot, read-out: binding constant of 1-NPN to CSP1): 11.7 µM; Kd ([3]; direct titration, Scatchard plot, read-out: binding constant of 1-NPN to CSP2): 20.8 µM
C=CC(C)=CCC=C(C)C [Ocimene] | > 100 | > 100 | > 100 | 
CCCCCCCCCC(=O)O [Decanoic acid] |  |  |  | Ki [1]: > 100 µM; IC50 [2]: 14.6 to 95.1 µM; Ki [2, 9]: > 100 µM; Ki [3]: > 100 µM
CCCCCCCO [1-Heptanol] | > 100 | > 100 | > 100 | 
C=C(C)C1CC=C(C)[C@@H](O)C1 (single isomer, unassigned; (-)) [(-)-Carveol] | > 100 | > 100 | > 100 | 
C=C1CC/C=C(\C)CC[C@@H]2[C@@H]1CC2(C)C [Caryopyllene] | > 100 | > 100 | > 100 | 
CCCCCCCC=O [Octanal] | > 100 | > 100 | > 100 | 
CCCCCC(C)=O [2-Heptanone] | > 100 |  | > 100 | Ki [2, 7]: 55.3 ± 4.21 µM; IC50 [2, 8]: 14.6 to 95.1 µM
CC/C=C\CCO [Z3-Hexen-1-ol] | > 100 | > 100 | > 100 | 
C=CC(=C)CC/C=C(\C)CCC=C(C)C [E-β-Farnesene] | > 100 | > 100 | > 100 | 
CC12CCC(CC1)C(C)(C)O2 [1,8-Cineole] | > 100 | > 100 | > 100 | 
CC1(C)[C@H]2CC[C@]1(C)C(=O)C2 [(1S)-(-)-Camphor] |  |  |  | Ki [2, 7]: 50.8 ± 3.08 µM
